According to ChEMBL document CHEMBL5143600, “Discovery and optimization of betulinic acid derivatives as novel potent CD73 inhibitors” (Bioorg Med Chem, 2022):
Active and inactive are the calls of the source. The calls are words filed in the database; no cut-off is given here.

Key:
[1] = Selectivity index, ratio of IC50 for inhibition of mose CD73 to IC50 for inhibition of human CD73
5'-nucleotidase [2] = target: T1, 5'-nucleotidase (Mus musculus, UniProt Q61503); assay: Inhibition of mouse CD73 assessed as reduction in inorganic phosphate release upon substrate hydrolysis using AMP[…] as substrate incubated for 1 hr followed by substrate addition and measured after 2 hrs by malachite green reagent based colorimetric assay
T1 sequence (Q61503 whole entry): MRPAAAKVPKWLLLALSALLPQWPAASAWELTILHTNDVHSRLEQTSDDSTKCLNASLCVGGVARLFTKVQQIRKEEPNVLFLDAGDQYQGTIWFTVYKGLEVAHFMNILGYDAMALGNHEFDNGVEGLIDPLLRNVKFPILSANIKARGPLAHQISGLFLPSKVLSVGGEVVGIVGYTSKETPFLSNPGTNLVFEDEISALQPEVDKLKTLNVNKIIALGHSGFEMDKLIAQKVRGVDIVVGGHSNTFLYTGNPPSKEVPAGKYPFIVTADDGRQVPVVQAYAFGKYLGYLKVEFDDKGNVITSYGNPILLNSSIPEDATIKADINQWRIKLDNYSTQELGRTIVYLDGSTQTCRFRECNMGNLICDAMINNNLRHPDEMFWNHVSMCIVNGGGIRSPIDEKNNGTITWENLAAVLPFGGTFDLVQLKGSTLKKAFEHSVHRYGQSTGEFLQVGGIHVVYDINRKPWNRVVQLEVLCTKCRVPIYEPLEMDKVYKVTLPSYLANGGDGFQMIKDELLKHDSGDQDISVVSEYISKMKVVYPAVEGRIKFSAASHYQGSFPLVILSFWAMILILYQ

5'-nucleotidase [3] = target: T2, 5'-nucleotidase (Homo sapiens, UniProt P21589); assay: (§1) Inhibition of human CD73 assessed as reduction in inorganic phosphate release upon substrate hydrolysis using AMP[…] as substrate incubated for 1 hr followed by substrate addition and measured after 2 hrs by malachite green reagent based colorimetric assay
T2 sequence (P21589 whole entry): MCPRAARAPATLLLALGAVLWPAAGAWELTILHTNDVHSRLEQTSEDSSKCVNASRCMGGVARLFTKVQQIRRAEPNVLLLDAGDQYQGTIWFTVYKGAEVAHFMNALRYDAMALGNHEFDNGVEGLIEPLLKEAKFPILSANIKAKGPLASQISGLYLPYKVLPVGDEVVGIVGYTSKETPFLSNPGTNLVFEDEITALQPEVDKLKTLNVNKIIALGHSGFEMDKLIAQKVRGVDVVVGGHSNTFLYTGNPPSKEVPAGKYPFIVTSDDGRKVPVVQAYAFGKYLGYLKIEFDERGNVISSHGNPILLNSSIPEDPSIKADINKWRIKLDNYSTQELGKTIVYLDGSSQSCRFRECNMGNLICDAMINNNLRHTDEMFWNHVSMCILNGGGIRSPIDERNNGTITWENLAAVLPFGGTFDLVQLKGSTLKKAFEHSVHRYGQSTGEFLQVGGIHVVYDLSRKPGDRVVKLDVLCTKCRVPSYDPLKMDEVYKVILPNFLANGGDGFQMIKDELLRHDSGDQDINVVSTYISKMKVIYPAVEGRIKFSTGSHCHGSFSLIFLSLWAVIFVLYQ

CD4+ve Th = assay: Induction of anti-CD3/CD28 antibodies-stimulated CD4-positive Th cell activation in C57BL/6J mouse assessed as reversal of AMP/EHNA-inhibited IFN-gamma production at 10 uM preincubated for 15 mins followed by AMP/EHNA addition and measured after 96 hrs by ELISA; assay type: functional, cell-based; details: time 5775.0 min
MDA-MB-231 = assay: Cytotoxicity against human MDA-MB-231 cells assessed as inhibition of cell growth incubated for 72 hrs by CCK-8 assay; assay type: functional, cell-based; details: MDA-MB-231, 72 h
MIA PaCa-2 = assay: Cytotoxicity against human MIA PaCa-2 cells assessed as inhibition of cell growth incubated for 72 hrs by CCK-8 assay; assay type: functional, cell-based; details: MIA PaCa-2, 72 h
5'-nucleotidase [4] = target: T2, 5'-nucleotidase; assay: as §1, with “Potency index, ratio of betulinic acid IC50 to test compound IC50 for inhibition” for “Inhibition”; details: time 3.0 hrs

C=C(C)[C@@H]1CC[C@]2(C(=O)O)CC[C@]3(C)[C@H](CC[C@@H]4[C@@]5(C)CC[C@H](OC(=O)N6CCNCC6)C(C)(C)[C@@H]5CC[C@]43C)[C@@H]12
Ratio IC50 [1]: 2 | IC50 (5'-nucleotidase [2]): 33.6 µM | IC50 (5'-nucleotidase [3]): 16.8 µM

Nc1ncnc2c1ncn2[C@@H]1O[C@H](COP(=O)(O)CP(=O)(O)O)[C@@H](O)[C@H]1O
Activity (CD4+ve Th): Active

C=C(C)[C@@H]1CC[C@]2(C(=O)O)CC[C@]3(C)[C@H](CC[C@@H]4[C@@]5(C)CC[C@H](O)[C@@](C)(CO)[C@@H]5CC[C@]43C)[C@@H]12
IC50 (5'-nucleotidase [3]): > 100 µM

C=C(C)[C@@H]1CC[C@]2(C(=O)O)CC[C@]3(C)[C@H](CC[C@@H]4[C@@]5(C)CC[C@H](OC(=O)N6CC(O)C6)C(C)(C)[C@@H]5CC[C@]43C)[C@@H]12
IC50 (5'-nucleotidase [2]): > 100 µM | IC50 (5'-nucleotidase [3]): > 100 µM

C=C(C)[C@@H]1CC[C@]2(C(=O)O)CC[C@]3(C)[C@H](CC[C@@H]4[C@@]5(C)CC[C@H](OC(=O)NCCN6CCOCC6)C(C)(C)[C@@H]5CC[C@]43C)[C@@H]12
IC50 (5'-nucleotidase [2]): > 100 µM | IC50 (5'-nucleotidase [3]): > 100 µM

C=C(C)[C@@H]1CC[C@]2(C(=O)O)CC[C@]3(C)[C@H](CC[C@@H]4[C@@]5(C)CC[C@H](OC(=O)N6CCCCC6)C(C)(C)[C@@H]5CC[C@]43C)[C@@H]12
IC50 (MDA-MB-231): > 100 µM | Ratio IC50 [1]: 10.5 | IC50 (MIA PaCa-2): > 100 µM | IC50 (5'-nucleotidase [2]): 14.6 µM | Ratio IC50 (5'-nucleotidase [4]): 5.2

C=C(C)[C@@H]1CC[C@]2(C(=O)O)CC[C@]3(C)[C@H](CC[C@@H]4[C@@]5(C)CC[C@H](OC(=O)N6CCN(C)CC6)C(C)(C)[C@@H]5CC[C@]43C)[C@@H]12
IC50 (5'-nucleotidase [2]): > 100 µM | IC50 (5'-nucleotidase [3]): > 100 µM

C=C(C)[C@@H]1CC[C@]2(C(=O)O)CC[C@]3(C)[C@H](CC[C@@H]4[C@@]5(C)CC[C@H](OC(=O)N6CCC(N)CC6)C(C)(C)[C@@H]5CC[C@]43C)[C@@H]12
IC50 (5'-nucleotidase [2]): > 100 µM | IC50 (5'-nucleotidase [3]): > 100 µM

C=C(C)[C@@H]1CC[C@]2(C(=O)O)CC[C@]3(C)[C@H](CC[C@@H]4[C@@]5(C)CC[C@H](OC(=O)NC6CC6)C(C)(C)[C@@H]5CC[C@]43C)[C@@H]12
IC50 (5'-nucleotidase [2]): > 100 µM | IC50 (5'-nucleotidase [3]): 81.4 µM

C=C(C)[C@@H]1CC[C@]2(C(=O)O)CC[C@]3(C)[C@H](CC[C@@H]4[C@@]5(C)CC[C@H](OC(=O)NCCO)C(C)(C)[C@@H]5CC[C@]43C)[C@@H]12
IC50 (5'-nucleotidase [2]): > 100 µM | IC50 (5'-nucleotidase [3]): 37.2 µM

Nc1ccn([C@@H]2O[C@H](CO)[C@@H](O)C2(F)F)c(=O)n1 [GEMCITABINE]
IC50 (MDA-MB-231): 2.22 µM | IC50 (MIA PaCa-2): 0.36 µM

C=C(C)[C@@H]1CC[C@]2(C(=O)O)CC[C@]3(C)[C@H](CC[C@@H]4[C@@]5(C)CC[C@H](O)C(C)(C)[C@@H]5CC[C@]43C)[C@@H]12 [BETULINIC ACID]
Activity (CD4+ve Th): Active | IC50 (MDA-MB-231): 19.1 µM | IC50 (MIA PaCa-2): 26.7 µM | IC50 (5'-nucleotidase [2]): 68.8 µM | IC50 (5'-nucleotidase [3]): 7.28 µM

C=C(C)[C@@H]1CC[C@]2(C(=O)O)CC[C@]3(C)[C@H](CC[C@@H]4[C@@]5(C)CC[C@H](OC(=O)N6CCCC6)C(C)(C)[C@@H]5CC[C@]43C)[C@@H]12
IC50 (5'-nucleotidase [2]): > 100 µM | IC50 (5'-nucleotidase [3]): > 100 µM

C=C(C)[C@@H]1CC[C@]2(C(=O)O)CC[C@]3(C)[C@H](CC[C@@H]4[C@@]5(C)CCC(=O)C(C)(C)[C@@H]5CC[C@]43C)[C@@H]12 [BETUNOLIC ACID]
IC50 (5'-nucleotidase [3]): 43.3 µM

C=C(C)[C@@H]1CC[C@]2(C=O)CC[C@]3(C)[C@H](CC[C@@H]4[C@@]5(C)CC[C@H](O)C(C)(C)[C@@H]5CC[C@]43C)[C@@H]12 [BETULINALDEHYDE]
IC50 (5'-nucleotidase [3]): > 100 µM

C=C(C)[C@@H]1CC[C@]2(C(=O)O)CC[C@]3(C)[C@H](CC[C@@H]4[C@@]5(C)CC[C@H](OC(=O)NC(C)C)C(C)(C)[C@@H]5CC[C@]43C)[C@@H]12
IC50 (MDA-MB-231): > 100 µM | Ratio IC50 [1]: 10.4 | IC50 (MIA PaCa-2): 77.2 µM | IC50 (5'-nucleotidase [2]): 59 µM | Ratio IC50 (5'-nucleotidase [4]): 1.3 | IC50 (5'-nucleotidase [3]): 5.69 µM
